Tests used:
[1] = system: HeLa; test: Cytotoxicity against human HeLa cells by MTT assay; format: functional, cell-based
[2] = system: DU-145; test: Cytotoxicity against human DU145 cells by MTT assay; format: functional, cell-based
[3] = system: HeLa; test: Ratio of cyclophosphamide IC50 to compound IC50 for human HeLa cells; format: functional
[4] = system: DU-145; test: Ratio of cyclophosphamide IC50 to compound IC50 for human DU145 cells; format: functional
[5] = system: DU-145; test: Ratio of beta-hydroxyisovalerylshikonin IC50 to compound IC50 for human DU145 cells; format: functional
[6] = system: HeLa; test: Ratio of beta-hydroxyisovalerylshikonin IC50 to compound IC50 for human HeLa cells; format: functional

Row | Compound | IC50 [1] [µM] | IC50 [2] [µM] | Ratio IC50 [3] | Ratio IC50 [4] | Ratio IC50 [5] | Ratio IC50 [6]
1 | CC(C)=CC[C@@H](OC(=O)CCO)C1=CC(=O)c2c(O)ccc(O)c2C1=O | 67.6 | 55.3 |  |  |  | 
2 | CCC(O)(CC)CC(=O)O[C@H](CC=C(C)C)C1=CC(=O)c2c(O)ccc(O)c2C1=O | 52 | 67 |  |  |  | 
3 | CC(=O)OCCC(=O)O[C@H](CC=C(C)C)C1=CC(=O)c2c(O)ccc(O)c2C1=O | 17.3 | 15.7 |  |  |  | 
4 | CCCCC(CC(=O)O[C@H](CC=C(C)C)C1=CC(=O)c2c(O)ccc(O)c2C1=O)OC(C)=O (stereo partly drawn) | 73.5 | 67.7 |  |  |  | 
5 | CC(C)=CC[C@@H](OC(=O)c1ccoc1)C1=CC(=O)c2c(O)ccc(O)c2C1=O | > 100 | > 100 |  |  |  | 
6 | CC(C)=CC[C@@H](OC(=O)c1ccco1)C1=CC(=O)c2c(O)ccc(O)c2C1=O | 80.3 | > 100 |  |  |  | 
7 | CC(C)=CC[C@@H](OC(=O)C1CCOC1)C1=CC(=O)c2c(O)ccc(O)c2C1=O (stereo partly drawn) | 73.5 | 47.5 |  |  |  | 
8 | CC(C)=CC[C@@H](OC(=O)C1CCCO1)C1=CC(=O)c2c(O)ccc(O)c2C1=O (stereo partly drawn) | 17 | 10.5 | 4 | 5 |  | 
9 | CC(C)=CC[C@@H](OC(=O)C1CCCOC1)C1=CC(=O)c2c(O)ccc(O)c2C1=O (stereo partly drawn) | 60.5 | 29.7 |  |  |  | 
10 | CC(C)=CC[C@@H](OC(=O)C1CCCCO1)C1=CC(=O)c2c(O)ccc(O)c2C1=O (stereo partly drawn) | > 100 | 24.7 |  |  |  | 
11 | CC(C)=CC[C@@H](OCCO)C1=CC(=O)c2c(O)ccc(O)c2C1=O | 18.6 | 9.9 | 4 | 5 | 2 | 3
12 | CC(=O)OCCO[C@H](CC=C(C)C)C1=CC(=O)c2c(O)ccc(O)c2C1=O | 41.5 | 15.5 |  |  |  | 
13 | COCCO[C@H](CC=C(C)C)C1=CC(=O)c2c(O)ccc(O)c2C1=O | 62.4 | 43.2 |  |  |  | 
14 | CC[C@@](C)(O)CC(=O)O[C@H](CC=C(C)C)C1=CC(=O)c2c(O)ccc(O)c2C1=O | 17.9 | 12.7 |  |  |  | 
15 | CC(C)=CC[C@@H](OC[C@@H](C)O)C1=CC(=O)c2c(O)ccc(O)c2C1=O | 22.5 | 14.3 |  |  |  | 
16 | CC(C)=CC[C@@H](OC[C@H](C)O)C1=CC(=O)c2c(O)ccc(O)c2C1=O | 40.3 | 24.5 |  |  |  | 
17 | CCCCC(C)(O)CC(=O)O[C@H](CC=C(C)C)C1=CC(=O)c2c(O)ccc(O)c2C1=O (mixture of isomers) | 60.6 | 76.5 |  |  |  | 
18 | CCCC(O)CC(=O)O[C@H](CC=C(C)C)C1=CC(=O)c2c(O)ccc(O)c2C1=O (mixture of isomers) | 59.3 | > 100 |  |  |  | 

Row | Compound | IC50 [1] [µM] | IC50 [2] [µM] | Ratio IC50 [3] | Ratio IC50 [4] | Ratio IC50 [5] | Ratio IC50 [6]
19 | CCCCC(O)CC(=O)O[C@H](CC=C(C)C)C1=CC(=O)c2c(O)ccc(O)c2C1=O (mixture of isomers) | 72.2 | 45.3 |  |  |  | 
20 | CC(C)=CC[C@@H](OC(=O)CC(O)c1ccccc1)C1=CC(=O)c2c(O)ccc(O)c2C1=O (mixture of isomers) | 44.5 | 17 |  |  |  | 
21 | CCC(C)(O)CC(=O)O[C@H](CC=C(C)C)C1=CC(=O)c2c(O)ccc(O)c2C1=O (mixture of isomers) | 25.2 | 16 |  |  |  | 
22 | CCCC(C)(O)CC(=O)O[C@H](CC=C(C)C)C1=CC(=O)c2c(O)ccc(O)c2C1=O (mixture of isomers) | 72 | 75 |  |  |  | 
23 | CC(C)=CC[C@@H](OC(=O)CC(C)(O)C(C)C)C1=CC(=O)c2c(O)ccc(O)c2C1=O (mixture of isomers) | 27.7 | 16.9 |  |  |  | 
24 | CCCCCCC(C)(O)CC(=O)O[C@H](CC=C(C)C)C1=CC(=O)c2c(O)ccc(O)c2C1=O (mixture of isomers) | > 100 | > 100 |  |  |  | 
25 | CC(C)=CC[C@@H](OC(=O)CC(C)(O)c1ccccc1)C1=CC(=O)c2c(O)ccc(O)c2C1=O (mixture of isomers) | 85.7 | > 100 |  |  |  | 
26 | CCCC(CC(=O)O[C@H](CC=C(C)C)C1=CC(=O)c2c(O)ccc(O)c2C1=O)OC(C)=O (mixture of isomers) | 51.2 | 55.7 |  |  |  | 
27 | CC(C)=CC[C@@H](OCC(C)O)C1=CC(=O)c2c(O)ccc(O)c2C1=O (mixture of isomers) | 24.7 | 16.1 |  |  |  | 
28 | CCC(O)CO[C@H](CC=C(C)C)C1=CC(=O)c2c(O)ccc(O)c2C1=O (mixture of isomers) | 28.7 | 16.4 |  |  |  | 
29 | CC(=O)OC(C)CO[C@H](CC=C(C)C)C1=CC(=O)c2c(O)ccc(O)c2C1=O (mixture of isomers) | 40.1 | 16.6 |  |  |  | 
30 | CCC(CO[C@H](CC=C(C)C)C1=CC(=O)c2c(O)ccc(O)c2C1=O)OC(C)=O (mixture of isomers) | 44 | 25.4 |  |  |  | 
31 | COC(C)CO[C@H](CC=C(C)C)C1=CC(=O)c2c(O)ccc(O)c2C1=O (mixture of isomers) | 53.4 | 16.6 |  |  |  | 
32 | CCC(CO[C@H](CC=C(C)C)C1=CC(=O)c2c(O)ccc(O)c2C1=O)OC (mixture of isomers) | 63.5 | 45.7 |  |  |  | 
33 | CC[C@](C)(O)CC(=O)O[C@H](CC=C(C)C)C1=CC(=O)c2c(O)ccc(O)c2C1=O (racemic) | 30.2 | 20.5 |  |  |  | 
34 | CC(C)=CC[C@@H](OC(=O)CC(C)(C)O)C1=CC(=O)c2c(O)ccc(O)c2C1=O [BETA-HYDROXYISOVALERYLSHIKONIN] | 55 | 16.8 |  |  |  | 
35 | O=P1(N(CCCl)CCCl)NCCCO1 (stereo not drawn) [CYCLOPHOSPHAMIDE ANHYDROUS] | 71.4 | 52.5 |  |  |  | 
36 | O=c1[nH]cc(F)c(=O)[nH]1 [FLUOROURACIL] | > 100 | > 100 |  |  |  | 
